According to patent US9796711B2, “Substituted pyrazolo[3,4-b]pyridin-6-carboxylic acids and method of use” (AbbVie S.àr.l., priority 2015, dated 2017):

Assays:
ΔF508-CFTR [1] = molecular target: T1, ΔF508-CFTR (Homo sapiens, UniProt P13569, DEL508-508); experiment: CFTR cell surface levels using HRP-tagged ΔF508-CFTR expressing CFBE cells, intrinsic corrector capacity; format: cell-based; conditions: HRP-tagged ΔF508-CFTR CFBE41o- cells, compounds alone (intrinsic corrector capacity), 20 hours at 33° C.; for % Activation: positive control 3 μM corrector; for EC50: read-out: EC50
T1 construct: host or cells: CFBE41o-, doxycycline-inducible
Summary of the method: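 Here the cells express ΔF508-CFTR with horseradish peroxidase inserted in extracellular loop 4, so only rescued channel at the surface gives luminescent signal. Compounds act on their own, 20 h at the reduced temperature of 33 °C; values are percent activity relative to DMSO and a 3 μM corrector.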

ΔF508-CFTR [2] = molecular target: T1, ΔF508-CFTR; experiment: CFTR cell surface levels using HRP-tagged ΔF508-CFTR expressing CFBE cells, in the presence of a co-corrector; format: cell-based; conditions: HRP-tagged ΔF508-CFTR expressing CFBE cells, in the presence of 3 μM co-corrector; for EC50: read-out: EC50
Summary of the method: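 Cells were seeded with 0.5 μg/mL doxycycline and held 68 h at 37 °C. Test compounds plus 3 μM co-corrector (final 0.1% DMSO) were then added for 20 h at 33 °C. Washed cells received HRP substrate, and luminescence was normalized between DMSO and 3 μM co-corrector controls.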

T1 sequence (P13569 with tags, fused parts or gaps DEL508-508): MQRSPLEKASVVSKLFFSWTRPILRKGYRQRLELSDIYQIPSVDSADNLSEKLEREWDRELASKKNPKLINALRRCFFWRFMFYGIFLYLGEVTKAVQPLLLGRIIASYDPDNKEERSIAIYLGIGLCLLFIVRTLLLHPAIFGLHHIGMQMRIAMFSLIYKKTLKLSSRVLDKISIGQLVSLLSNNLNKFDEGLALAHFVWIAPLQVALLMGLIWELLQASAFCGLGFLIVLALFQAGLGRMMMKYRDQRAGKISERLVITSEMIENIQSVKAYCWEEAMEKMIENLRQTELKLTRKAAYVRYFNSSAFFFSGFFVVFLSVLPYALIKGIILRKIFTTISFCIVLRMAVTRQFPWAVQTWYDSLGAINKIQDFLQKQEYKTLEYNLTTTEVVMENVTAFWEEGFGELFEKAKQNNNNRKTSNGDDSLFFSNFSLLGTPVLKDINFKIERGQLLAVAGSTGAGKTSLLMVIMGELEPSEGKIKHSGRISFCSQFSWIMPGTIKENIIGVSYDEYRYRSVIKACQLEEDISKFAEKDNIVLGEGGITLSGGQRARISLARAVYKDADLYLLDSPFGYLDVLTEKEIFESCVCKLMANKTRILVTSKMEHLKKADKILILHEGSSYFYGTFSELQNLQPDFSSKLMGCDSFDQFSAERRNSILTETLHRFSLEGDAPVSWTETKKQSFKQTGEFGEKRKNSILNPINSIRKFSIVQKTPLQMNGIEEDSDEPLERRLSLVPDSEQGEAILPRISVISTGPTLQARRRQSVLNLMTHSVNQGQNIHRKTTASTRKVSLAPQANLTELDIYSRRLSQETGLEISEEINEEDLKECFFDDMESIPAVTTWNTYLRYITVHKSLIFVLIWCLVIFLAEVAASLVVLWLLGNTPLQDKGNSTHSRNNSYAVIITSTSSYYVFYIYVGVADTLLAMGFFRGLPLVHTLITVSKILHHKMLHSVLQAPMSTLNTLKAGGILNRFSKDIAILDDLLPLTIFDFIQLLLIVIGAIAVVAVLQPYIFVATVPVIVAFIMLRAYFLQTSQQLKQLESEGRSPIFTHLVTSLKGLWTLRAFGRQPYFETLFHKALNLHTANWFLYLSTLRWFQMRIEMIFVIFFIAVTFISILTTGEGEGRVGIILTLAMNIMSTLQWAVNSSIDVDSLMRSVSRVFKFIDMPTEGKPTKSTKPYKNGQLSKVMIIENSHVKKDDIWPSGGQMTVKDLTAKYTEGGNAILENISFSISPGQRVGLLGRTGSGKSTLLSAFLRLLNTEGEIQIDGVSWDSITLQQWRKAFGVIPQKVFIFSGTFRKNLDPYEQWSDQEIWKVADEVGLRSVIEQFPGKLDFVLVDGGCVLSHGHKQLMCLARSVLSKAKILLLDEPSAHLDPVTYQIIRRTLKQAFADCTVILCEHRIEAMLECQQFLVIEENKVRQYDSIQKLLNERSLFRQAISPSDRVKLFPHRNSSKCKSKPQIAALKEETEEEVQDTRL

Compound | % Activation (ΔF508-CFTR [1]) [%] | EC50 (ΔF508-CFTR [1]) [µM] | % Activation (ΔF508-CFTR [2]) [%] | EC50 (ΔF508-CFTR [2]) [µM]
Cc1nn(-c2ccccc2)c2nc(C(=O)O)cc(O[C@H]3C[C@@H](N(C)C)C3)c12 [compound 340, 4-{[cis-3-(dimethylamino)cyclobutyl]oxy}-3-methyl-1-phenyl-1H-pyrazolo[3,4-b]pyridine-6-carboxylic acid] | 18.86 | 7.5 | 146 | 4.17
Cc1nn(-c2ccccc2)c2nc(C(=O)O)cc(OC3COC3)c12 [compound 341, 3-methyl-4-[(oxetan-3-yl)oxy]-1-phenyl-1H-pyrazolo[3,4-b]pyridine-6-carboxylic acid] | 25.115 | 4.17 | 149.55 | 4.09
Cc1nn(-c2ccccc2)c2nc(C(=O)O)cc(OCCN3CCCC3)c12 [compound 342, 3-methyl-1-phenyl-4-[2-(pyrrolidin-1-yl)ethoxy]-1H-pyrazolo[3,4-b]pyridine-6-carboxylic acid] | 19.4 | 7.5 | 138.5 | 3.37
Cc1nn(-c2ccccc2)c2nc(C(=O)O)cc(O[C@@H]3CCCN(C)C3)c12 [compound 343, 3-methyl-4-{[(3R)-1-methylpiperidin-3-yl]oxy}-1-phenyl-1H-pyrazolo[3,4-b]pyridine-6-carboxylic acid] | 11.085 | 7.5 | 104.7 | 7.5
Cc1nn(-c2ccccc2)c2nc(C(=O)O)cc(OC3CC4(COC4)C3)c12 [compound 344, 3-methyl-4-[(2-oxaspiro[3.3]heptan-6-yl)oxy]-1-phenyl-1H-pyrazolo[3,4-b]pyridine-6-carboxylic acid] | 69.225 | 2.51 | 218.25 | 1.77
Cc1nn(-c2ccccc2)c2nc(C(=O)O)cc(O[C@H]3C[C@H](N4CCCCC4)C3)c12 [compound 345, 3-methyl-1-phenyl-4-{[trans-3-(piperidin-1-yl)cyclobutyl]oxy}-1H-pyrazolo[3,4-b]pyridine-6-carboxylic acid] | 23.411 | 4.17 | 129.4 | 4.17
Cc1nn(-c2ccccc2)c2nc(C(=O)O)cc(O[C@H]3C[C@@H](N4CCCCC4)C3)c12 [compound 346, 3-methyl-1-phenyl-4-{[cis-3-(piperidin-1-yl)cyclobutyl]oxy}-1H-pyrazolo[3,4-b]pyridine-6-carboxylic acid] | 20.555 | 7.5 | 151.2 | 4.17
Cc1nn(-c2ccccc2)c2nc(C(=O)O)cc(OCCC3CC(F)(F)C3)c12 [compound 347, 4-[2-(3,3-difluorocyclobutyl)ethoxy]-3-methyl-1-phenyl-1H-pyrazolo[3,4-b]pyridine-6-carboxylic acid] | 79.835 | 1.41 | 259.55 | 1.41
Cc1cccc(-n2nc(C(C)C)c3c(N4CCC(CF)CC4)cc(C(=O)O)nc32)c1 [compound 348, 4-[4-(fluoromethyl)piperidin-1-yl]-1-(3-methylphenyl)-3-(propan-2-yl)-1H-pyrazolo[3,4-b]pyridine-6-carboxylic acid] | 217.2 | 0.553 | 410.3 | 0.37
O=C(O)c1cc(-c2ccc(N3CCOCC3)cc2)c2c(C3CCC3)nn(-c3cccc(F)c3)c2n1 [compound 349, 3-cyclobutyl-1-(3-fluorophenyl)-4-[4-(morpholin-4-yl)phenyl]-1H-pyrazolo[3,4-b]pyridine-6-carboxylic acid] | 208.2 | 0.46 | 382.73 | 0.236
O=C(O)c1cc(-c2ccc(N3CCOCC3)cc2)c2c(C3CCC3)nn(-c3ccc(F)c(F)c3)c2n1 [compound 350, 3-cyclobutyl-1-(3,4-difluorophenyl)-4-[4-(morpholin-4-yl)phenyl]-1H-pyrazolo[3,4-b]pyridine-6-carboxylic acid] | 211 | 0.426 | 397.5 | 0.316
